Values quoted from earlier work, collected in US6558704B1, “Process for preparing pellets containing up to 90 wt.% of a pharmaceutical active ingredient” (Gruenenthal GmbH, priority 1999, dated 2003).
Structures can show the parent of a compound that is named as a salt.

| Structure (SMILES) | solubility in water [mg/mL] |
| --- | --- |
| CN(C)CCCN1c2ccccc2Sc2ccc(Cl)cc21 [chlorpromazine hydrochloride] | 2500 |
| Cc1c(N(C)CS(=O)(=O)[O-])c(=O)n(-c2ccccc2)n1C.[Na+] [metamizol-Na] | > 1000 |
